Reference: patent US9856242B2, “5-fluoro-N-(pyridin-2-yl)pyridin-2-amine derivatives containing a sulfone group” (Bayer Pharma Aktiengesellschaft, priority 2014, dated 2018)

Key:
DU145 cells = test: Proliferation assay (Method 3), DU145; type: cell-based; details: DU-145, 96 h; hormone-independent human prostate carcinoma, 4 days, crystal violet; read-out: Inhibition of DU145 cell proliferation IC50
Method: Cultivated tumour cells (HeLa, human cervical tumour cells, ATCC CCL-2; NCI-H460, human non-small cell lung carcinoma cells, ATCC HTB-177; A2780, human ovarian carcinoma cells, ECACC #93112519; DU 145, hormone-independent human prostate carcinoma cells, ATCC HTB-81; HeLa-MaTu-ADR, multidrug-resistant human cervical carcinoma cells, EPO-GmbH Berlin; Caco-2, human colorectal carcinoma cells, ATCC HTB-37; B16F10, mouse melanoma cells, ATCC CRL-6475) were plated at a density of 5,000 cells/well (DU145, HeLa-MaTu-ADR), 3,000 cells/well (NCI-H460, HeLa), 2,500 cells/well (A2780), 1,500 cells/well (Caco-2), or 1,000 cells/well (B16F10) in a 96-well multititer plate in 200 μL of their respective growth medium supplemented 10% fetal calf serum. After 24 hours, the cells of one plate (zero-point plate) were stained with crystal violet (see below), while the medium of the other plates was replaced by fresh culture medium (200 μl), to which the test substances were added in various concentrations (0 μM, as well as in the range of 0.001-10 μM; the final concentration of the solvent dimethyl sulfoxide was 0.5%). The cells were incubated for 4 days in the presence of test substances. Cell proliferation was determined by staining the cells with crystal violet: the cells were fixed by adding 20 μl/measuring point of an 11% glutaric aldehyde solution for 15 minutes at room temperature. After three washing cycles of the fixed cells with water, the plates were dried at room temperature. The cells were stained by adding 100 μl/measuring point of a 0.1% crystal violet solution (pH 3.0). After three washing cycles of the stained cells with water, the plates were dried at room temperature. The dye was dissolved by adding 100 μl/measuring point of a 10% acetic acid solution. The extinction was determined by photometry at a wavelength of 595 nm. The change of cell number, in percent, was calculated by normalization of the measured values to the extinction values of the zero-point plate (=0%) and the extinction of the untreated (0 μm) cells (=100%). The IC50 values (inhibitory concentration at 50% of maximal effect) were determined by means of a 4 parameter fit.

CDK2/CycE = molecular target: T1, CDK2/CycE (Homo sapiens, UniProt P24941); test: CDK2/CycE kinase assay (Method 2a, TR-FRET, 10 μM ATP); type: biochemical
T1 construct: GST; purchased ProQinase GmbH (Freiburg, Germany); host or cells: insect cells (Sf9)
Description: 2a. CDK2/CycE Kinase Assay:
CDK2/CycE-inhibitory activity of compounds of the present invention was quantified employing the CDK2/CycE TR-FRET assay as described in the following paragraphs:
Recombinant fusion proteins of GST and human CDK2 and of GST and human CycE, expressed in insect cells (Sf9) and purified by Glutathion-Sepharose affinity chromatography, were purchased from ProQinase GmbH (Freiburg, Germany). As substrate for the kinase reaction biotinylated peptide biotin-Ttds-YISPLKSPYKISEG (C-terminus in amid form) was used which can be purchased e.g. form the company JERINI Peptide Technologies (Berlin, Germany).
For the assay 50 n1 of a 100 fold concentrated solution of the test compound in DMSO was pipetted into a black low volume 384 well microtiter plate (Greiner Bio-One, Frickenhausen, Germany), 2 μl of a solution of CDK2/CycE in aqueous assay buffer [50 mM Tris/HCl pH 8.0, 10 mM MgCl2, 1.0 mM dithiothreitol, 0.1 mM sodium ortho-vanadate, 0.01% (v/v) Nonidet-P40 (Sigma)] were added and the mixture was incubated for 15 min at 22° C. to allow pre-binding of the test compounds to the enzyme before the start of the kinase reaction. Then the kinase reaction was started by the addition of 3 μl of a solution of adenosine-tri-phosphate (ATP, 16.7 μM=>final conc. in the 5 μl assay volume is 10 μM) and substrate (1.25 μM=>final conc. in the 5 μl assay volume is 0.75 μM) in assay buffer and the resulting mixture was incubated for a reaction time of 25 min at 22° C. The concentration of CDK2/CycE was adjusted depending of the activity of the enzyme lot and was chosen appropriate to have the assay in the linear range, typical concentrations were in the range of 130 ng/mL. The reaction was stopped by the addition of 5 μl of a solution of TR-FRET detection reagents (0.2 μM streptavidine-XL665 [Cisbio Bioassays, Codolet, France] and 1 nM anti-RB(pSer807/pSer811)-antibody from BD Pharmingen [#558389] and 1.2 nM LANCE EU-W1024 labeled anti-mouse IgG antibody [Perkin-Elmer, product no. AD0077]) in an aqueous EDTA-solution (100 mM EDTA, 0.2% (w/v) bovine serum albumin in 100 mM HEPES/NaOH pH 7.0).
The resulting mixture was incubated 1 h at 22° C. to allow the formation of complex between the phosphorylated biotinylated peptide and the detection reagents. Subsequently the amount of phosphorylated substrate was evaluated by measurement of the resonance energy transfer from the Eu-chelate to the streptavidine-XL. Therefore, the fluorescence emissions at 620 nm and 665 nm after excitation at 350 nm was measured in a TR-FRET reader, e.g. a Rubystar (BMG Labtechnologies, Offenburg, Germany) or a Viewlux (Perkin-Elmer). The ratio of the emissions at 665 nm and at […] was taken as the measure for the amount of phosphorylated substrate. The data were normalised (enzyme reaction without inhibitor=0% inhibition, all other assay components but no enzyme=100% inhibition).

IC50 (DU145 cells) [nM] | IC50 (CDK2/CycE) [nM] | SMILES
58 | 69 | CS(=O)(=O)Cc1ccnc(Nc2cc(-c3cccc4ccoc34)c(F)cn2)c1 [Example 5, 4-(1-Benzofuran-7-yl)-5-fluoro-N-{4-[(methylsulfonyl)methyl]pyridin-2-yl}pyridin-2-amine]
30 | 33 | CS(=O)(=O)Cc1cc(Nc2cc(-c3ccc(F)c4ccoc34)c(F)cn2)nc(C(F)(F)F)c1 [Example 4, 5-Fluoro-4-(4-fluoro-1-benzofuran-7-yl)-N-{4-[(methylsulfonyl)methyl]-6-(trifluoromethyl)pyridin-2-yl}pyridin-2-amine]

Second part, the compound before the results:

SMILES | IC50 (DU145 cells) [nM] | IC50 (CDK2/CycE) [nM]
CS(=O)(=O)Cc1ccnc(Nc2cc(-c3ccc(F)c4ccoc34)c(F)cn2)c1 [Example 1, 5-Fluoro-4-(4-fluoro-1-benzofuran-7-yl)-N-{4-[(methylsulfonyl)methyl]pyridin-2-yl}pyridin-2-amine] | 34 | 87
Cc1cc(CS(C)(=O)=O)cc(Nc2cc(-c3ccc(F)c4ccoc34)c(F)cn2)n1 [Example 3, 5-Fluoro-4-(4-fluoro-1-benzofuran-7-yl)-N-{6-methyl-4-[(methylsulfonyl)methyl]pyridin-2-yl}pyridin-2-amine] | 24 | 46
CS(=O)(=O)Cc1cc(F)nc(Nc2cc(-c3ccc(F)c4ccoc34)c(F)cn2)c1 [Example 2, 5-Fluoro-4-(4-fluoro-1-benzofuran-7-yl)-N-{6-fluoro-4-[(methylsulfonyl)methyl]pyridin-2-yl}pyridin-2-amine] | 36 | 71
